Experimental data published in patent publication US7745463B2, “Alkene piperidine derivatives as antiviral agents” (priority 2006, dated 2010).

Each compound was assayed on HIV-1 single-round infectious reporter virus (assay: Single-round infectious HIV-1 reporter virus (luciferase) infection of HeLa CD4 cells). Conditions: Human immunodeficiency virus 1, HeLa, 72 h, read-out: EC50 Group from Table 1.
Format: cell-based
Experimental: • Virus production—Human embryonic Kidney cell line, 293T, was propagated in Dulbecco's Modified Eagle Medium (Invitrogen, Carlsbad, Calif.) containing 10% fetal Bovine serum (FBS, Sigma, St. Louis, Mo.). • Virus infection-Human epithelial cell line, HeLa, expressing the HIV-1 receptor CD4 was propagated in Dulbecco's Modified Eagle Medium (Invitrogen, Carlsbad, Calif.) containing 10% fetal Bovine serum (FBS, Sigma, St. Louis, Mo.) and supplemented with 0.2 mg/mL Geneticin (Invitrogen, Carlsbad, Calif.). • Virus-Single-round infectious reporter virus was produced by co-transfecting human embryonic Kidney 293 cells with an HIV-1 envelope DNA expression vector and a proviral cDNA containing an envelope deletion mutation and the luciferase reporter gene inserted in place of HIV-1 nef sequences (Chen et al, Ref. 41). Transfections were performed using lipofectAMINE PLUS reagent as described by the manufacturer (Invitrogen, Carlsbad, Calif.). Experiment: • HeLa CD4 cells were plated in 96 well plates at a cell density of 1×10^4 cells per well in 100 μl Dulbecco's Modified Eagle Medium containing 10% fetal Bovine serum and incubated overnight. • Compound was added in a 2 μl dimethylsulfoxide solution, so that the final assay concentration would be ≦10 μM. • 100 μl of single-round infectious reporter virus in Dulbecco's Modified Eagle Medium was then added to the plated cells and compound at an approximate multiplicity of infection (MOI) of 0.01, resulting in a final volume of 200 μl per well. • Virally-infected cells were incubated at 37 degrees Celsius, in a CO2 incubator, and harvested 72 h after infection. • Viral infection was monitored by measuring luciferase expression from viral DNA in the infected cells using a luciferase reporter gene assay kit, as described by the manufacturer (Roche Molecular Biochemicals, Indianapolis, Ind.). Infected cell supernatants were removed and 50 μl of lysis buffer was added per well. After 15 minutes, 50 μl of freshly-reconstituted luciferase assay reagent was added per well. Luciferase activity was then quantified by measuring luminescence using a Wallac microbeta scintillation counter. • The percent inhibition for each compound was calculated by quantifying the level of luciferase expression in cells infected in the presence of each compound as a percentage of that observed for cells infected in the absence of compound and subtracting such a determined value from 100. • An EC50 provides a method for comparing the antiviral potency of the compounds of this disclosure. The effective concentration for fifty percent inhibition (EC50) was calculated with the Microsoft Excel Xlfit curve fitting software. For each compound, curves were generated from percent inhibition calculated at 10 different concentrations by using a four paramenter logistic model (model 205). Table 1 is the key for the data in Table 2.

| Structure (SMILES) | EC50 |
| --- | --- |
| CC(Oc1cccc2ncccc12)C(=O)N1CCC(=C(C#N)c2ccccc2)CC1 (centres unmarked) | < 1 µM |
| CC(Oc1cccc2ncccc12)C(=O)N1CCC(=C(c2ccccc2)c2cccnc2)CC1 (centres unmarked) | > 1 µM |
| COC(=O)c1ccc(OC(C)C(=O)N2CCC(=C(c3ccccc3)c3cccnc3)CC2)c(OC)c1 (centres unmarked) | > 1 µM |
| Cc1nnc(C(=C2CCN(C(=O)C(C)Oc3cccc4ncccc34)CC2)c2ccccc2)o1 (centres unmarked) | > 1 µM |
| CC(Oc1cccc2cccnc12)C(=O)N1CCC(=C(C#N)c2ccccc2)CC1 (centres unmarked) | < 1 µM |
| COC(=O)c1ccc(OC(C)C(=O)N2CCC(=C(C#N)c3ccccc3)CC2C)c(OC)c1 (centres unmarked) | < 1 µM |
| COC(=O)c1ccc(OC(C)C(=O)N2CCC(=C(C#N)c3ccccc3)CC2)c(OC)c1 (centres unmarked) | < 1 µM |
| COC(=O)c1ccc(OC(C)C(=O)N2CCC(=C(c3ccccc3)c3nnc(C)o3)CC2)c(OC)c1 (centres unmarked) | < 1 µM |
| CC(Oc1cccc2ncccc12)C(=O)N1CCC(=C(C#N)c2ccccc2)CC1C (centres unmarked) | < 1 µM |
| COC(=O)c1ccc(OC(C)C(=O)N2CCC(=C(c3ccccc3)c3ccccc3)CC2)c(OC)c1 (centres unmarked) | < 1 µM |
| CC(Oc1cccc2ncccc12)C(=O)N1CCC(=C(c2ccccc2)c2ccccc2)CC1 (centres unmarked) | > 1 µM |
